Assays:
barnyardgrass [1] = assay: Test A preemergence; format: in vivo, Echinochloa crus-galli
In short: (§1)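 Greenhouse test in loam soil/sand blend; compounds formulated in non-phytotoxic solvent with surfactant, applied as preemergence directed soil spray or postemergence to plants 2–10 cm tall at one- to two-leaf stage. Injury rated visually versus untreated controls after approximately 10 days on a 0 (no effect) to 100 (complete control) scale.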

crabgrass, large [2] = assay: Test A preemergence; format: in vivo, Digitaria sanguinalis; conditions: for Crabgrass, Large plant response rating (0 to 100 scale): 125 g ai/ha, visual injury approx. 10 days after treatment
In short: as §1

velvetleaf [3] = assay: Test A preemergence; format: in vivo, Abutilon theophrasti; conditions: for Velvetleaf plant response rating (0 to 100 scale): 125 g ai/ha, visual injury approx. 10 days after treatment
In short: as §1

barnyardgrass [4] = assay: Test A postemergence; format: in vivo, Echinochloa crus-galli
In short: as §1

crabgrass, large [5] = assay: Test A postemergence; format: in vivo, Digitaria sanguinalis
In short: as §1

pigweed = assay: Test A postemergence; format: in vivo, Amaranthus retroflexus
In short: as §1

nutsedge, yellow = assay: Test C preemergence; format: in vivo, Cyperus esculentus; conditions: preemergence; for Plant response rating, Nutsedge, Yellow: 125 g ai/ha, scale 0 to 100, 0 = no effect, 100 = complete control
From the text: (§2) Seeds of plant species selected from blackgrass (Alopecurus myosuroides), ryegrass, Italian (Italian ryegrass, Lolium multiflorum), wheat (winter wheat, Triticum aestivum), galium (catchweed bedstraw, Galium aparine), corn (Zea mays), crabgrass, large (large crabgrass, Digitaria sanguinalis), foxtail, giant (giant foxtail, Setaria faberii), johnsongrass (Sorghum halepense), lambsquarters (Chenopodium album), morningglory (Ipomoea coccinea), nutsedge, yellow (yellow nutsedge, Cyperus esculentus), pigweed (redroot pigweed, Amaranthus retroflexus), ragweed (common ragweed, Ambrosia elation), soybean (Glycine max), barnyardgrass (Echinochloa crus-galli), oilseed rape (Brassica napus), waterhemp (common waterhemp, Amaranthus rudis), oat, wild (wild oat, Avena fatua), kochia (Kochia scoparia), Surinam grass (Brachiaria decumbens), foxtail, green (green foxtail, Setaria viridis), goosegrass (Eleusine indica), bromegrass, downy (downy bromegrass, Bromus tectorum), nightshade (eastern black nightshade, Solanum ptycanthum), cocklebur (common cocklebur, Xanthium strumarium), cupgrass, woolly (woolly cupgrass, Eriochloa villosa), bermudagrass (Cynodon dactylon), sunflower, (common oilseed sunflower, Helianthus annuus), Russian thistle (Salsola kali), and velvetleaf (Abutilon theophrasti) were planted into a blend of loam soil and sand and treated preemergence with test chemicals formulated in a non-phytotoxic solvent mixture which included a surfactant.
(§3) At the same time, plants selected from these crop and weed species and also chickweed (common chickweed, Stellaria media), canarygrass (littleseed canarygrass, Phalaris minor), and deadnettle (henbit deadnettle, Lamium amplexicaule), were planted in pots containing Redi-Earth® planting medium (Scotts Company, 14111 Scottslawn Road, Marysville, Ohio 43041) comprising spaghnum peat moss, vermiculite, wetting agent and starter nutrients and treated with postemergence applications of test chemicals formulated in the same manner. Plants ranged in height from 2 to 18 cm (1- to 4-leaf stage) for postemergence treatments. Treated plants and controls were maintained in a greenhouse for 13 to 15 days, after which time all species were compared to controls and visually evaluated. Plant response ratings, summarized in Table C, are based on a scale of 0 to 100 where 0 is no effect and 100 is complete control. A dash (-) response means no test result.

soybean [6] = assay: Test C preemergence; format: in vivo, Glycine max; conditions: preemergence; for Plant response rating, Soybean: 125 g ai/ha, scale 0 to 100, 0 = no effect, 100 = complete control
In short: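 In this greenhouse assay, seeded soil (loam plus sand) or emerged seedlings in peat-vermiculite medium were treated with formulated compound. Roughly two weeks later (13–15 days), each species was scored visually relative to controls, from 0 for no effect to 100 for complete control.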

oilseed rape = assay: Test C preemergence; format: in vivo, Brassica napus; conditions: preemergence; for Plant response rating, Oilseed Rape: 125 g ai/ha, scale 0 to 100, 0 = no effect, 100 = complete control
From the text: as §2, §3

velvetleaf [7] = assay: Test C preemergence; format: in vivo, Abutilon theophrasti; conditions: preemergence; for Plant response rating, Velvetleaf: 125 g ai/ha, scale 0 to 100, 0 = no effect, 100 = complete control
From the text: as §2, §3

wheat = assay: Test C postemergence; format: in vivo, Triticum aestivum; conditions: postemergence
From the text: as §2, §3

corn = assay: Test C postemergence; format: in vivo, Zea mays; conditions: for Plant response rating, Corn: postemergence
From the text: as §2, §3

soybean [8] = assay: Test C postemergence; format: in vivo, Glycine max; conditions: postemergence
From the text: as §2, §3

velvetleaf [9] = assay: Test C postemergence; format: in vivo, Abutilon theophrasti; conditions: postemergence
From the text: as §2, §3

[10] = preemergence, 500 g ai/ha, visual injury after approx. 10 days, 0 to 100 scale (0 no effect, 100 complete control)
[11] = Postemergence, 500 g ai/ha, 0 to 100 scale (0 no effect, 100 complete control)
[12] = postemergence, 125 g ai/ha, about 10 days, visual rating on 0 to 100 scale (0 no effect, 100 complete control)
[13] = 31 g ai/ha, visual rating, scale 0 to 100 (0 no effect, 100 complete control), 13 to 15 days
[14] = 62 g ai/ha, scale 0 to 100 (0 no effect, 100 complete control), 13 to 15 days
[15] = 250 g ai/ha, scale 0 to 100, 0 is no effect, 100 is complete control
[16] = Preemergence, 1000 g ai/ha, 0 to 100 scale, 0 no effect, 100 complete control
[17] = Postemergence, 1000 g ai/ha, visual rating after approx. 10 days, 0 to 100 scale (0 no effect, 100 complete control)
[18] = 250 g ai/ha, scale 0 to 100 (0 no effect, 100 complete control)
[19] = 125 g ai/ha, scale 0 to 100, 0 no effect, 100 complete control

CCCc1cc(C(=O)NOC(C)C)nn1Cc1cc(C(F)(F)F)nn1C [Compound 203]
Barnyardgrass plant response rating (0 to 100 scale, 0 is no effect, 100 is complete control) (barnyardgrass [1]; preemergence, 125 g ai/ha, visual injury approx. 10 days after treatment): 80
Barnyardgrass plant response rating (barnyardgrass [1]; [10]): 100
Crabgrass, Large plant response rating (0 to 100 scale) (crabgrass, large [2]; preemergence): 100
Crabgrass, Large plant response rating (crabgrass, large [2]; [10]): 100
Velvetleaf plant response rating (0 to 100 scale) (velvetleaf [3]; preemergence): 30
Barnyardgrass plant response rating (barnyardgrass [4]; [11]): 80
Barnyardgrass plant response rating (barnyardgrass [4]; [12]): 40
Crabgrass, Large plant response rating (crabgrass, large [5]; [11]): 90
Crabgrass, Large plant response rating (crabgrass, large [5]; [12]): 70
Pigweed plant response rating (pigweed; Postemergence, 125 g ai/ha, 0 to 100 scale, 0 no effect, 100 complete control): 90
Pigweed plant response rating (pigweed; [11]): 100
Nutsedge, Yellow plant response rating (nutsedge, yellow; [13]): 5
Nutsedge, Yellow plant response rating (nutsedge, yellow; [14]): 35
Plant response rating, Nutsedge, Yellow (nutsedge, yellow; 13 to 15 days): 85
Nutsedge, Yellow plant response rating (nutsedge, yellow; [15]): 90
Soybean plant response rating (soybean [6]; [13]): 5
Soybean plant response rating (soybean [6]; [14]): 5
Plant response rating, Soybean (soybean [6]; 13 to 15 days): 35
Soybean plant response rating (soybean [6]; [15]): 55
Oilseed Rape plant response rating (oilseed rape; [13]): 50
Oilseed Rape plant response rating (oilseed rape; [14]): 100
Plant response rating, Oilseed Rape (oilseed rape; 13 to 15 days): 100
Oilseed Rape plant response rating (oilseed rape; [15]): 100
Velvetleaf plant response rating (velvetleaf [7]; [13]): 30
Velvetleaf plant response rating (velvetleaf [7]; [14]): 98
Plant response rating, Velvetleaf (velvetleaf [7]; 13 to 15 days): 100
Velvetleaf plant response rating (velvetleaf [7]; [15]): 100

O=C(NCC(F)(F)F)c1cc(CCF)n(Cc2ccnc(C(F)(F)F)c2)n1 [Compound 175]
Barnyardgrass plant response rating (barnyardgrass [1]; preemergence, 125 g ai/ha, visual injury, 0 to 100 scale, approx. 10 days): 100
Barnyardgrass plant response rating (barnyardgrass [1]; [10]): 100
Crabgrass, Large plant response rating (0 to 100 scale) (crabgrass, large [2]; preemergence): 100
Crabgrass, Large plant response rating (crabgrass, large [2]; [10]): 100
Velvetleaf plant response rating (0 to 100 scale) (velvetleaf [3]; preemergence): 40
Velvetleaf plant response rating (velvetleaf [3]; [10]): 100
Barnyardgrass plant response rating (barnyardgrass [4]; [11]): 90
Barnyardgrass plant response rating (barnyardgrass [4]; [12]): 70
Crabgrass, Large plant response rating (crabgrass, large [5]; [11]): 90
Crabgrass, Large plant response rating (crabgrass, large [5]; [12]): 90
Pigweed plant response rating (pigweed; [11]): 100
Pigweed plant response rating (pigweed; [12]): 100
Nutsedge, Yellow plant response rating (nutsedge, yellow; [13]): 10
Nutsedge, Yellow plant response rating (nutsedge, yellow; [14]): 55
Plant response rating, Nutsedge, Yellow (nutsedge, yellow; 13 to 15 days): 70
Nutsedge, Yellow plant response rating (nutsedge, yellow; [15]): 98
Soybean plant response rating (soybean [6]; [13]): 30
Soybean plant response rating (soybean [6]; [14]): 98
Plant response rating, Soybean (soybean [6]; 13 to 15 days): 98
Soybean plant response rating (soybean [6]; [15]): 98
Oilseed Rape plant response rating (oilseed rape; [13]): 98
Oilseed Rape plant response rating (oilseed rape; [14]): 100
Plant response rating, Oilseed Rape (oilseed rape; 13 to 15 days): 100
Oilseed Rape plant response rating (oilseed rape; [15]): 100
Velvetleaf plant response rating (velvetleaf [7]; [13]): 55
Velvetleaf plant response rating (velvetleaf [7]; [14]): 98
Plant response rating, Velvetleaf (velvetleaf [7]; 13 to 15 days): 100
Velvetleaf plant response rating (velvetleaf [7]; [15]): 100

CCCNC(=O)c1cc(CC)n(Cc2cccc(OC(F)(F)F)c2)n1 [Compound 27]
Barnyardgrass plant response rating (barnyardgrass [1]; [16]): 50
Crabgrass, Large plant response rating (crabgrass, large [2]; [16]): 100
Velvetleaf plant response rating (velvetleaf [3]; [16]): 30
Barnyardgrass plant response rating (barnyardgrass [4]; [17]): 60
Crabgrass, Large plant response rating (crabgrass, large [5]; [17]): 80
Pigweed plant response rating (pigweed; [17]): 70
Wheat plant response rating (wheat; 62 g ai/ha, scale 0 to 100): 15
Plant response rating, Wheat (wheat; [18]): 20
Plant response rating, Wheat (wheat; [19]): 15
Corn plant response rating (corn; Postemergence, 31 g ai/ha, scale 0 to 100): 10
Plant response rating, Corn (corn; [18]): 15
Plant response rating, Corn (corn; 62 g ai/ha, scale 0 to 100, 0 no effect, 100 complete control): 10
Plant response rating, Corn (corn; [19]): 15
Soybean plant response rating (soybean [8]; 62 g ai/ha, scale 0 to 100): 65
Plant response rating, Soybean (soybean [8]; [18]): 75
Plant response rating, Soybean (soybean [8]; [19]): 70
Velvetleaf plant response rating (velvetleaf [9]; 62 g ai/ha, scale 0 to 100): 15
Plant response rating, Velvetleaf (velvetleaf [9]; [18]): 45
Plant response rating, Velvetleaf (velvetleaf [9]; [19]): 20

From patent US20150105252A1, “SUBSTITUTED PYRAZOLES AS HERBICIDES” (E I DU PONT DE NEMOURS AND COMPANY, priority 2013, published 2015)
